Laboratory results published in ChEMBL document CHEMBL1145680, “Bioactive Norlignan Glucosides from Curculigo capitulata” (1997).
Calls of active or inactive are those of the source. The rule behind the calls is not given here.

Key:
Right cardiac atrium [1] = experiment: Effect on spontaneous contractile tension in WKY rat right atria at 30 uM relative to control
[2] = Effect on 2 Hz electrically driven contractile tension in WKY rat right ventricle at 0.3 uM relative to control; assay type: functional, Heart right ventricle
Heart [3] = experiment: Effect on spontaneously beating heart rate in WKY rat right atria at 0.3 uM relative to control
Left cardiac atrium [4] = experiment: Effect on 2 Hz electrically driven contractile tension in WKY rat left atria at 30 uM relative to control; assay type: functional
[5] = Effect on 2 Hz electrically driven contractile tension in WKY rat right ventricle at 10 uM relative to control; assay type: functional, Heart right ventricle
Right cardiac atrium [6] = experiment: Effect on spontaneous contractile tension in WKY rat right atria at 10 uM relative to control
Left cardiac atrium [7] = experiment: Effect on 2 Hz electrically driven contractile tension in WKY rat left atria at 0.3 uM relative to control; assay type: functional
Heart [8] = experiment: Antiarrhythmic activity against ouabain-induced arrhythmia in guinea pig left atria assessed as reversal of cardiac arrhythmia to normal rhythm at 3 uM; assay type: functional, tissue-based; conditions: Cavia porcellus
Left cardiac atrium [9] = experiment: Effect on 2 Hz electrically driven contractile tension in WKY rat left atria at 10 uM relative to control; assay type: functional
Right cardiac atrium [10] = experiment: Effect on spontaneous contractile tension in WKY rat right atria at 1 uM relative to control
[11] = Effect on 2 Hz electrically driven contractile tension in WKY rat right ventricle at 1 uM relative to control; assay type: functional, Heart right ventricle
Heart [12] = experiment: Effect on spontaneously beating heart rate in WKY rat right atria at 1 uM relative to control
Left cardiac atrium [13] = experiment: Effect on 2 Hz electrically driven contractile tension in WKY rat left atria at 1 uM relative to control; assay type: functional
[14] = Effect on 2 Hz electrically driven contractile tension in WKY rat right ventricle at 30 uM relative to control; assay type: functional, Heart right ventricle
[15] = Effect on 2 Hz electrically driven contractile tension in WKY rat right ventricle at 3 uM relative to control; assay type: functional, Heart right ventricle
Heart [16] = experiment: Effect on spontaneously beating heart rate in WKY rat right atria at 30 uM relative to control
Right cardiac atrium [17] = experiment: Effect on spontaneous contractile tension in WKY rat right atria at 3 uM relative to control
Heart [18] = experiment: Effect on spontaneously beating heart rate in WKY rat right atria at 3 uM relative to control
Left cardiac atrium [19] = experiment: Effect on 2 Hz electrically driven contractile tension in WKY rat left atria at 3 uM relative to control; assay type: functional
Heart [20] = experiment: Antiarrhythmic activity against ouabain-induced arrhythmia in guinea pig right ventricle assessed as reversal of cardiac arrhythmia to normal rhythm at 1 uM; assay type: functional, tissue-based; conditions: Cavia porcellus
Right cardiac atrium [21] = experiment: Effect on spontaneous contractile tension in WKY rat right atria at 0.3 uM relative to control
Heart [22] = experiment: Effect on spontaneously beating heart rate in WKY rat right atria at 10 uM relative to control
Heart [23] = experiment: Antiarrhythmic activity against ouabain-induced arrhythmia in guinea pig right ventricle assessed as reversal of cardiac arrhythmia to normal rhythm at 3 uM; assay type: functional, tissue-based; conditions: Cavia porcellus
Heart [24] = experiment: Antiarrhythmic activity against ouabain-induced arrhythmia in guinea pig right atria assessed as reversal of cardiac arrhythmia to normal rhythm at 10 uM; assay type: functional, tissue-based; conditions: Cavia porcellus
Heart [25] = experiment: Antiarrhythmic activity against ouabain-induced arrhythmia in guinea pig right ventricle assessed as reversal of cardiac arrhythmia to normal rhythm at 10 uM; assay type: functional, tissue-based; conditions: Cavia porcellus
Heart [26] = experiment: Antiarrhythmic activity against ouabain-induced arrhythmia in guinea pig left atria assessed as reversal of cardiac arrhythmia to normal rhythm at 1 uM; assay type: functional, tissue-based; conditions: Cavia porcellus
Heart [27] = experiment: Antiarrhythmic activity against ouabain-induced arrhythmia in guinea pig right atria assessed as reversal of cardiac arrhythmia to normal rhythm at 3 uM; assay type: functional, tissue-based; conditions: Cavia porcellus
Heart [28] = experiment: Antiarrhythmic activity against ouabain-induced arrhythmia in guinea pig right ventricle assessed as reversal of cardiac arrhythmia to normal rhythm at 30 uM; assay type: functional, tissue-based; conditions: Cavia porcellus
Heart [29] = experiment: Antiarrhythmic activity against ouabain-induced arrhythmia in guinea pig right atria assessed as reversal of cardiac arrhythmia to normal rhythm at 1 uM; assay type: functional, tissue-based; conditions: Cavia porcellus
Heart [30] = experiment: Antiarrhythmic activity against ouabain-induced arrhythmia in guinea pig right atria assessed as reversal of cardiac arrhythmia to normal rhythm at 30 uM; assay type: functional, tissue-based; conditions: Cavia porcellus

Structure (SMILES)	Activity (Right cardiac atrium [1]) [%]	Activity [2] [%]	Activity (Heart [3]) [%]	Activity (Left cardiac atrium [4]) [%]	Activity [5] [%]	Activity (Right cardiac atrium [6]) [%]	Activity (Left cardiac atrium [7]) [%]	Activity (Left cardiac atrium [9]) [%]	Activity (Right cardiac atrium [10]) [%]	Activity [11] [%]	Activity (Heart [12]) [%]	Activity (Left cardiac atrium [13]) [%]	Activity [14] [%]	Activity [15] [%]	Activity (Heart [16]) [%]	Activity (Right cardiac atrium [17]) [%]	Activity (Heart [18]) [%]	Activity (Left cardiac atrium [19]) [%]	Activity (Heart [20])	Activity (Heart [22]) [%]	other results
CCCCO[C@H](c1ccc(O)c(O)c1)[C@H](CC#Cc1ccc(O)c(O)c1)O[C@@H]1O[C@H](CO)[C@@H](O)[C@H](O)[C@H]1O	83.6	99	100	92.5	95.4	86.2	98.8	89.4	91	95.8	100	96	88.2	96.8	97.6	89.6	99	91.2	inactive	99.8	Activity (Heart [8]): Active; Activity (Right cardiac atrium [21]): 94%
CCCCO[C@@H](c1ccc(O)c(O)c1)[C@H](CC#Cc1ccc(O)c(O)c1)O[C@@H]1O[C@H](CO)[C@@H](O)[C@H](O)[C@H]1O	86.4	102	100	103.8	96.8	87.8	98.8	105	94.3	100	99	95.3	92.2	100.4	97.4	91.6	98.4	101.1	inactive	98.4	Activity (Heart [23]): inactive; Activity (Heart [24]): inactive; Activity (Heart [25]): inactive; Activity (Right cardiac atrium [21]): 95.5%
CO[C@H](c1ccc(O)c(O)c1)[C@H](CC#Cc1ccc(O)c(O)c1)O[C@@H]1O[C@H](CO)[C@@H](O)[C@H](O)[C@H]1O	101.7			89.7	104.3	100.3		102.3	99	106.7	100	103	99.3	106.3	103	99	103	101.3	inactive	103	Activity (Heart [8]): inactive
OC[C@H]1O[C@@H](O[C@@H](CC#Cc2ccc(O)c(O)c2)[C@H](O)c2ccc(O)c(O)c2)[C@H](O)[C@@H](O)[C@@H]1O [NYASICOSIDE]	78	92.3	100	98	78.2	83.3	108.3	100.3	94.5	84.8	98.8	105.8	74.6	83.6	98.5	92	97.4	104.5	inactive	98.5	Activity (Heart [23]): inactive; Activity (Heart [8]): Active; Activity (Heart [26]): inactive; Activity (Right cardiac atrium [21]): 96.8%
OC[C@H]1O[C@@H](O[C@@H](CC#Cc2ccc(O)cc2)[C@H](O)c2ccc(O)c(O)c2)[C@H](O)[C@@H](O)[C@@H]1O	94.8		100	116.3	95.2	94.5		119.3	97.5	98.4	97.5	106.8	94.2	99.2	98.5	98.3	97.5	111.5	inactive	98.5	Activity (Heart [27]): inactive; Activity (Heart [28]): inactive; Activity (Heart [23]): inactive; Activity (Heart [29]): inactive; Activity (Heart [30]): inactive; Activity (Heart [24]): inactive; Activity (Heart [25]): inactive
